Converted amounts (≈) assume the structure as drawn. Square brackets hold non-standard residues; d marks the D form. Peptide text beside a SMILES is read from it. Nspe = C[C@H](NCC(=O)O)c1ccccc1; Nphe = O=C(O)CNCc1ccccc1; Nlys = NCCCCNCC(=O)O

One series has as its system P. aeruginosa 213 (MDR). Kind of series: microbe, parasite or virus in culture. The following applies: 213 (MDR). On the procedure:
(§1) The MICs of test agents were measured using a modified broth micro-dilution method in Difco Mueller Hinton medium, on a panel of bacterial pathogens that were both susceptible and resistant to common antibiotics (S1 File). Briefly, serial dilutions were performed in 0.01% acetic acid containing 0.2% bovine serum albumin at 10-fold the desired final concentration. Ten μL of the 10-fold concentrated test reagents were added to each well of a 96-well polypropylene microtitre plate containing 90 μL of Mueller Hinton media per well. Bacteria were added to the plate from an overnight culture at a final concentration of 2–7 x 10^5 CFU/mL and incubated overnight at 37°C. The MIC is defined as the concentration at which no growth was observed.
(§2) Screening of peptoid antimicrobial activity against a panel of multidrug resistant superbugs was done according to the protocol described in the manuscript. The bacterial strains used in this panel included; P. aeruginosa PAO1 strain H103 [1], P. maltophilia ATCC#13637, S. aureus ATCC#25923 [1], E. faecalis ATCC#29212 [2], and E. cloacae 218R, constitutively expressing Class C chromosomal β-lactamase, were from the Hancock lab strains collection. An MRSA clinical isolate was kindly provided by Anthony Chow (Vancouver General Hospital, Vancouver, Canada). Two Klebsiella pneumoniae and two E. coli clinical isolates expressing extended spectrum β-lactamases (ESBL) were kindly provided by George Zhanel (Health Sciences Centre, Winnipeg, Canada). Vancomycin-resistant clinical isolates of Enterococcus faecalis and E. faecium were obtained from Ana M. Paccagnella (BC Centre for Disease Control, Vancouver, Canada). Three clinical isolates (#9, #198 and #213) of multi-drug resistant P. aeruginosa, were kindly provided by Carlos Kiffer (University of São Paulo, Brazil). […] Three P. aeruginosa clinical isolates of the Liverpool epidemic strain (LES) (H1027, H1030 and LES400) were all kindly provided by Craig Winstanley (University of Liverpool, UK). […] All tested bacterial strains were categorized as biohazard level 2 pathogens.

Series [1] relates to P. aeruginosa H1030 (MDR). Description: microbe, parasite or virus in culture. The settings on record: P. aeruginosa H1030 (MDR). On the procedure:
as §1, §2

Series [2] has as its system P. aeruginosa H1027 (MDR). Description: microbe, parasite or virus in culture. The settings on record: H1027 (MDR). On the procedure:
as §1, §2

In series [3] the test system is P. aeruginosa H103 (wild type). Kind of series: microbe, parasite or virus in culture. The settings on record: H103 (wild type). As to the method: as §1, §2
In another series the test system is E. coli 64771 (ESBL). Kind of series: microbe, parasite or virus in culture. The settings on record: 64771 (ESBL). As to the method:
as §1, §2

In the next series the test system is E. coli 63103 (ESBL). Kind of series: microbe, parasite or virus in culture. The following applies: 63103 (ESBL). On the procedure:
as §1, §2

The subject of another series is P. aeruginosa 9 (MDR). Kind of series: microbe, parasite or virus in culture. The following applies: 9 (MDR). As to the method: as §1, §2
A further series relates to E. faecalis W61950 (VRE). Kind of series: microbe, parasite or virus in culture. The following applies: W61950 (VRE). On the procedure:
as §1, §2

In the next series the test system is S. aureus ATCC25923. Description: microbe, parasite or virus in culture. The settings on record: ATCC25923. As to the method:
as §1, §2

The next series has as its system E. faecium mic80 (VRE). Description: microbe, parasite or virus in culture. The settings on record: mic80 (VRE). As to the method:
as §1, §2

The subject of series [4] is K. pneumonia 63575 (ESBL). Description: microbe, parasite or virus in culture. On the procedure: as §1, §2
The subject of a further series is E. faecium T62764 (VRE). Description: microbe, parasite or virus in culture. The settings on record: T62764 (VRE). As to the method: as §1, §2
For series [5], the system named is K. pneumonia 61962 (ESBL). Description: microbe, parasite or virus in culture. On the procedure: as §1, §2
The next series concerns E. faecalis ATCC29212. Kind of series: microbe, parasite or virus in culture. The following applies: ATCC29212. As to the method: as §1, §2
Series [6] concerns E. cloacae 218R Class C β-lactamase. Description: microbe, parasite or virus in culture. The settings on record: 218R Class C β-lactamase. As to the method:
as §1, §2

A further series relates to E. faecalis F43559 (VRE). Kind of series: microbe, parasite or virus in culture. The settings on record: F43559 (VRE). On the procedure: as §1, §2
In a further series the test system is P. aeruginosa 198 (MDR). Kind of series: microbe, parasite or virus in culture. The following applies: 198 (MDR). On the procedure: as §1, §2
The test system of series [7] is P. aeruginosa LES400 (MDR). Description: microbe, parasite or virus in culture. The following applies: LES400 (MDR). On the procedure:
as §1, §2

In the next series the test system is P. maltophilia ATCC13637. Description: microbe, parasite or virus in culture. The following applies: ATCC13637. As to the method:
as §1, §2

A further series has as its system S. aureus C623 (MRSA). Description: microbe, parasite or virus in culture. The settings on record: C623. On the procedure: as §1, §2
The next series relates to erythrocytes. Kind of series: Hemolytic activity (HD10/HD50). It is filed as cell-based. The source says: Table 1 Characteristics of antimicrobial peptoids, screened for activity against B. subtilis and E. coli bacterial strains. | column: HD10 / HD50
A further series deals with E. coli ATCC 35218. Type of series: cell-based. On the procedure:
MICs against B. subtilis and E. coli screening bacterial strains were determined using serial dilution in 96-well microtiter plates in accordance with CLSI M7-A6 protocols. Briefly, peptoid solution in cation-adjusted Mueller-Hinton broth was prepared by 2:1 serial dilution with a total volume of 50 µL per well. In experimental wells, 50 µL of bacterial inoculums (1 x 10^6 CFU/mL) were added to the peptoid solutions. Positive controls consisted of 50 µL inoculums added to 50 µL cation-adjusted Mueller-Hinton broth containing no peptoid, while negative controls contained only cation-adjusted Mueller-Hinton broth. […] Experiments were reproducible among three independent replicates, each consisting of two parallel trials.

Regarding `C[C@@H](c1ccccc1)N(CC(N)=O)C(=O)CN(Cc1ccccc1)C(=O)CN(CCCCN)C(=O)CN(C(=O)CN(Cc1ccccc1)C(=O)CN(CCCCN)C(=O)CN(C(=O)CN(Cc1ccccc1)C(=O)CN(CCCCN)C(=O)CN(C(=O)CN(Cc1ccccc1)C(=O)CNCCCCN)[C@@H](C)c1ccccc1)[C@@H](C)c1ccccc1)[C@@H](C)c1ccccc1` [1-Npm2,5,8,11, H-(NLys-Npm-Nspe)4-NH2] (H-[Nlys][Nphe][Nspe][Nlys][Nphe][Nspe][Nlys][Nphe][Nspe][Nlys][Nphe][Nspe]-NH2), the MIC stood at 4 µg/mL (≈ 2.27 µM) with P. aeruginosa 213 (MDR); 16 µg/mL (≈ 9.07 µM) in [1]; 2 µg/mL (≈ 1.13 µM) in series [2]; 4 µg/mL (≈ 2.27 µM) in series [3]; 4 µg/mL (≈ 2.27 µM) in the series with E. coli 64771 (ESBL); 8 µg/mL (≈ 4.54 µM) with E. coli 63103 (ESBL). For the same molecule, the MIC in the series on P. aeruginosa 9 (MDR) was 64 µg/mL (≈ 36.3 µM); against E. faecalis W61950 (VRE), 16 µg/mL (≈ 9.07 µM); in the series on S. aureus ATCC25923 it was 4 µg/mL (≈ 2.27 µM); against E. faecium mic80 (VRE), 4 µg/mL (≈ 2.27 µM); in series [4] it was 16 µg/mL (≈ 9.07 µM); in the series on E. faecium T62764 (VRE), 1 µg/mL (≈ 0.567 µM). The MIC came out at 32 µg/mL (≈ 18.1 µM) in [5]; 4 µg/mL (≈ 2.27 µM) against E. faecalis ATCC29212; 8 µg/mL (≈ 4.54 µM) in series [6]; 4 µg/mL (≈ 2.27 µM) in the series on E. faecalis F43559 (VRE); 8 µg/mL (≈ 4.54 µM) against P. aeruginosa 198 (MDR); 8 µg/mL (≈ 4.54 µM) in series [7]. Besides, the results for the MIC with P. maltophilia ATCC13637 and against S. aureus C623 (MRSA) were 2 µg/mL (≈ 1.13 µM) and 8 µg/mL (≈ 4.54 µM), respectively. Moreover, in the series on erythrocytes, the “HD10 (hemolytic activity)” value stood at 87. For the same molecule, the “HD50 (hemolytic activity)” value in the series with erythrocytes is listed as over 200. Moreover, the “MIC E. coli” value against E. coli ATCC 35218 turned out to be 6.3 µM (≈ 11.1 µg/mL).

For the molecule `C[C@@H](c1ccccc1)N(CC(N)=O)C(=O)CN(C(=O)CN(CCCCN)C(=O)CN(C(=O)CN(C(=O)CN(CCCCN)C(=O)CN(C(=O)CN(C(=O)CN(CCCCN)C(=O)[C@@H]1CCCN1C(=O)CN(C(=O)CNCCCCN)[C@@H](C)c1ccccc1)[C@@H](C)c1ccccc1)[C@@H](C)c1ccccc1)[C@@H](C)c1ccccc1)[C@@H](C)c1ccccc1)[C@@H](C)c1ccccc1` [Peptoid 1-Pro3, H-NLys-Nspe-L-Pro-(NLys-Nspe-Nspe)3-NH2] (H-[Nlys][Nspe]P[Nlys][Nspe][Nspe][Nlys][Nspe][Nspe][Nlys][Nspe][Nspe]-NH2), the MIC in the series on P. aeruginosa 213 (MDR) was 8 µg/mL (≈ 4.56 µM); in [1] it was 16 µg/mL (≈ 9.12 µM); in [2], 2 µg/mL (≈ 1.14 µM); in [3], 8 µg/mL (≈ 4.56 µM); against E. coli 64771 (ESBL), 8 µg/mL (≈ 4.56 µM); against E. coli 63103 (ESBL), 16 µg/mL (≈ 9.12 µM). Further, the MIC in the series with P. aeruginosa 9 (MDR) was 128 µg/mL (≈ 72.9 µM); against E. faecalis W61950 (VRE), 16 µg/mL (≈ 9.12 µM); against S. aureus ATCC25923, 4 µg/mL (≈ 2.28 µM); in the series with E. faecium mic80 (VRE), 4 µg/mL (≈ 2.28 µM); in series [4] it was 32 µg/mL (≈ 18.2 µM); in the series on E. faecium T62764 (VRE) it was 2 µg/mL (≈ 1.14 µM). The MIC in [5] is 32 µg/mL (≈ 18.2 µM); against E. faecalis ATCC29212, 8 µg/mL (≈ 4.56 µM); in [6], 16 µg/mL (≈ 9.12 µM); against E. faecalis F43559 (VRE) it was 8 µg/mL (≈ 4.56 µM); against P. aeruginosa 198 (MDR), 16 µg/mL (≈ 9.12 µM); in series [7] it was 8 µg/mL (≈ 4.56 µM). Moreover, the results for the MIC against P. maltophilia ATCC13637 and against S. aureus C623 (MRSA) were 1 µg/mL (≈ 0.57 µM) and 4 µg/mL (≈ 2.28 µM), respectively. Besides, in the series with erythrocytes, the “HD10 (hemolytic activity)” value was 74. Moreover, in the series on erythrocytes, the “HD50 (hemolytic activity)” value was over 200. Besides, in the series on E. coli ATCC 35218, the “MIC E. coli” value was 12.5 µM (≈ 21.9 µg/mL).

The values are drawn from publication PMC4744035, “In Vivo, In Vitro, and In Silico Characterization of Peptoids as Antimicrobial Agents” (PLoS ONE, 2016).
